Data set [1] concerns the target T1, NTMT1 (Homo sapiens, UniProt Q9BV86).
T1 construct: made in house
T1 sequence (Q9BV86 1-223): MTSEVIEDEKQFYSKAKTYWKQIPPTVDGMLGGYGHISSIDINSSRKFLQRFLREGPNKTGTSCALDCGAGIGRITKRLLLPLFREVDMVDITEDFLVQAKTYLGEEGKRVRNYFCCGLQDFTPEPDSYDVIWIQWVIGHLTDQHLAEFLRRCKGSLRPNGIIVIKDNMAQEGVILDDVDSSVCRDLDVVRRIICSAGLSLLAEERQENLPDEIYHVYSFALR
Particulars: cited from earlier work.

In data set [2] the test system is panel of 41 methyltransferases. To be noted: among a panel of 41 methyltransferases; cited from earlier work.
The target in data set [3] is T1, NTMT1. Description: NTMT1 biochemical assay (SAHH-coupled fluorescence assay).
In another data set the test system is HCT116 cells. Description: Cytotoxicity / cell viability, alamarBlue (resazurin) assay. It is filed as cell-based. To be noted: Homo sapiens, HCT-116, normal HCT116 cells. The text has this: To test this hypothesis, compound 1a was selected to evaluate its effects on both wild-type and NTMT1 knockout HCT116 cells (FIG. 3B).
Background: Alamar Blue is a resazurin reagent that responds to reducing activity.

Data set [4] has as its system cellular α-N-terminal methylation level in HCT116 cells. Description: Cellular N-terminal methylation assay (Western blot, anti-me3-SPK). It counts as cell-based, human. To be noted: for IC50: Homo sapiens, HCT-116, HCT116 cells, Western blot, n = 2. As to the method: FIGS. 4A-4C. Cellular N-terminal methylation assay of GD562 (1d), GD564 (1f), and GD573 (1e) in HCT116 cells. Representative Western blot results of the effects of GD562 (0-300 μM) on the cellular methylation level (n=2) (FIG. 4A). Representative Western blot results of the effects of GD564 (0-100 μM) on the cellular methylation level (n=2) (FIG. 4B). Representative Western blot results of the effects of GD573 (0-300 μM) on the cellular methylation level (n=2) (FIG. 4C). Image quantification was done using ImageJ software (NIH).
Cellular N-methylation level. […] The membrane was then blocked for 1 hour in 5% milk TBST solution and washed with 1×TBST solution three times. […] Image quantification was done using ImageJ software (NIH).
(In general: A western blot detects proteins with antibodies after separation by electrophoresis.)

The nature of another data set: in vitro. Particulars: PAMPA. The method, then:
The stock solutions in 10 mM DMSO was diluted with PBS to a final concentration of 200 μM with 2% DMSO (v/v). Verapamil was added as a control. The pre-coated PAMPA plate system was warmed to room temperature, and the donor plate (bottom) was filled with 300 μL of the diluted sample solution while the acceptor plate (top) was filled with 200 μL of the buffer. […] The permeability of each compound was calculated using the formula:
• CD (t)=compound concentration in donor well at time t. • CA (t)=compound concentration in acceptor well at time t. • VD=donor well volume • VA=acceptor well volume • A=filter area • t=incubation time
Background: PAMPA measures passive passage across an artificial lipid membrane.

Data set [5] concerns me3-SET. The data set can be described thus: Cellular N-terminal methylation assay, me3-SET. It counts as cell-based. Particulars: Homo sapiens, HCT-116, HCT116 cells. The method, then:
(§1) . Representative Western blot results of the effects of GD562 (0-300 μM) on the cellular methylation level (n=2) (FIG. 4A). Representative Western blot results of the effects of GD564 (0-100 μM) on the cellular methylation level (n=2) (FIG. 4B). Representative Western blot results of the effects of GD573 (0-300 μM) on the cellular methylation level (n=2) (FIG. 4C). Image quantification was done using ImageJ software (NIH).
(§2) […]. Cellular N-methylation level. […] The membrane was then blocked for 1 hour in 5% milk TBST solution and washed with 1×TBST solution three times. […] Image quantification was done using ImageJ software (NIH).

Data set [6] deals with me3-RCC1. The data set can be described thus: Cellular N-terminal methylation assay, me3-RCC1. Particulars: HCT116 cells; for IC50: Homo sapiens, HCT-116. It counts as cell-based, human. The method, then: as §1, §2
The test system of data set [7] is me3-SET. To be noted: at 300 μM in HCT116 cells, previously reported; cited from earlier work.
Data set [8] has as its system me3-RCC1. Particulars: cited from earlier work.
The mark [9] stands for this setting: recombinant NTMT1, n = 2, mean ± SD.

Read-outs that look alike come from different tables or passages of the source.

The source of these data is US20250115636A1, “PEPTIDOMIMETIC INHIBITORS OF PROTEIN N-TERMINAL […] 1, COMPOSITION, AND METHOD OF USE” (Purdue Research Foundation, priority 2022, published 2025).

On to `NCCCC[C@H](NC(=O)[C@@H]1CCCN1C(=O)Cc1ccc(O)cc1)C(=O)N[C@@H](CCCN=C(N)N)C(N)=O` [BM30], for which the concentration for half-maximal inhibition (IC50) – broadly, the concentration at which inhibition is half-maximal – at NTMT1 [1] (previously reported inhibitors) was 0.89 ± 0.1 µM. Moreover, the “Selectivity for NTMT1/2” value in data set [2] is “over 100 fold”.
Take `NCCCC[C@H](NC(=O)[C@@H]1CCCN1C(=O)Cc1cccc2ccccc12)C(=O)Nc1cccc(Br)c1` [Compound 1a]: the IC50 on NTMT1 [3] (setting [9]) is 0.17 ± 0.008 µM. Besides, the GI50 (commonly the concentration that inhibits growth by half) in the data set on HCT116 cells was in the range of 48 to 135 µM.
The matching figures for `NCCCC[C@H](NC(=O)[C@@H]1CCCN1C(=O)Cc1cccc2ccccc12)C(=O)Nc1ccc(Br)cc1` [Compound 1b]: 0.18 ± 0.007 µM and 48 to 135 µM.
`NCCCC[C@H](NC(=O)[C@@H]1CCCN1C(=O)Cc1cccc2ccccc12)C(=O)NCc1ccccc1` [Compound 1c]: the 50% inhibitory concentration (IC50) at NTMT1 [3] (setting [9]) is 0.91 ± 0.03 µM; in data set [4] it was less than 300 µM. Besides, in “in vitro”, the apparent permeability (Papp) (usually the rate of passage across a membrane or cell layer, normalised by area and donor concentration) at 5 h, 200 μM came out at 0.24 ± 0.06 ×10⁻⁶ cm/s. The GI50 with HCT116 cells is more than 300 µM.
As to `NCCCC[C@H](NC(=O)[C@@H]1CCCN1C(=O)Cc1cccc2ccccc12)C(=O)NCCc1ccccc1` [Compound 1d], the “Difference between enzymatic and cellular IC50 values” in data set [4] is approximately 50 fold. Besides, the IC50 (in data set [4]; in the data set with me3-SET [5] (read-out: Cellular IC50 on N-terminal methylation of SET); in the data set on me3-SET [5] (read-out: Cellular IC50 on me3-SET); in the data set on me3-RCC1 [6] (read-out: Cellular IC50 on N-terminal methylation of RCC1); with me3-RCC1 [6] (read-out: Cellular IC50 on me3-RCC1)) was approximately 50 µM in each case. Besides, in “in vitro”, the Papp at 5 h, 200 μM came to 0.26 ± 0.06 ×10⁻⁶ cm/s. Also, the GI50 with HCT116 cells was more than 300 µM. The “Increase in cellular inhibition activity on me3-RCC1 compared to DC541” value in the data set with me3-RCC1 [6] was “over 2 fold”.
`NCCCC[C@H](NC(=O)[C@@H]1CCCN1C(=O)Cc1cccc2ccccc12)C(=O)NCCCc1ccccc1` [Compound 1e]: the values for the half-inhibitory concentration (IC50) (on NTMT1 [3] (setting [9]); in data set [4]) were 0.65 ± 0.01 µM and approximately 100 µM, respectively. The apparent permeability (Papp) at 5 h, 200 μM in “in vitro” was 0.17 ± 0.08 ×10⁻⁶ cm/s. The compound further gave a GI50 in the data set with HCT116 cells of more than 300 µM.
For the compound `NCCCC[C@H](NC(=O)[C@@H]1CCCN1C(=O)Cc1cccc2ccccc12)C(=O)NCC1CCCCC1` [Compound 1f], the results for the concentration for half-maximal inhibition (IC50) (on NTMT1 [3] (setting [9]); in data set [4]) were 0.94 ± 0.03 µM and approximately 100 µM, respectively. In addition, in the data set “in vitro”, the Papp at 5 h, 200 μM was 0.47 ×10⁻⁶ cm/s. This compound also had a 50% growth inhibitory concentration (GI50) in the data set on HCT116 cells of more than 300 µM.
For the compound `NCCCC[C@H](NC(=O)[C@@H]1CCCN1C(=O)Cc1cccc2ccccc12)C(=O)NCc1cccc(Br)c1` [Compound 1g], the IC50 on NTMT1 [3] (setting [9]) was 0.58 ± 0.03 µM; in data set [4] it was less than 300 µM. The same compound had a Papp at 5 h, 200 μM in “in vitro” of 0.6 ± 0.1 ×10⁻⁶ cm/s.
For the compound `NCCCC[C@H](NC(=O)[C@@H]1CCCN1C(=O)Cc1cccc2ccccc12)C(=O)NCc1ccc(Br)cc1` [Compound 1h], the IC50 is 0.82 ± 0.07 µM at NTMT1 [3] (setting [9]) and less than 300 µM in [4]. The compound also had a Papp at 5 h, 200 μM in the data set “in vitro” of 0.9 ± 0.2 ×10⁻⁶ cm/s.
In turn, `NCCCC[C@H](NC(=O)[C@@H]1CCCN1C(=O)Cc1cccc2ccccc12)C(=O)NCCc1ccc(-c2ccccc2)cc1` [Compound 1j] came in with an IC50 against NTMT1 [3] of 2.5 ± 0.09 µM. Moreover, the Papp at 5 h, 200 μM in the data set “in vitro” stood at 0.9 ×10⁻⁶ cm/s.
Turning to `NCCCC[C@H](NC(=O)[C@@H]1CCCN1C(=O)Cc1cccc2ccccc12)C(=O)NCCc1cccc(-c2ccccc2)c1` [Compound 1k], the IC50 at NTMT1 [3] (setting [9]) worked out at 0.69 ± 0.08 µM. Also, in the data set “in vitro”, the Papp at 5 h, 200 μM came out at 1.3 ×10⁻⁶ cm/s and the Permeability result is recorded as “±0.4 10^−6 cm/s”. Further, the concentration for 50% growth inhibition (GI50) with HCT116 cells was in the range of 48 to 135 µM.
On to `NCCCC[C@H](NC(=O)[C@@H]1CCCN1C(=O)Cc1cccc2ccccc12)C(=O)Nc1ccccc1C(N)=O` [DC541], for which the “Inhibition of me3-SET level” value in the data set on me3-SET [7] is listed as “did not show any inhibition”. Moreover, on NTMT1 [3] (ratio of NTMT1 IC50 to that of DC541), the “IC50/IC50 (DC541)” value is on record as 1.0. Moreover, the concentration for half-maximal inhibition (IC50) at NTMT1 [3] (setting [9]) was 0.34 ± 0.03 µM; with me3-RCC1 [8] (HCT116, previously reported, read-out: Cellular IC50 on the me3-RCC1 level), approximately 100 µM. The “Decrease in inhibitory activity on recombinant NTMT1 compared to DC113” value at NTMT1 [1] is on record as approximately 3 fold. Besides, the “Enhancement of cellular inhibition compared to DC113” value in the data set with me3-RCC1 [8] is “about 10 fold”.
